As usually defined, the Ki is the equilibrium dissociation constant of an inhibitor or competing ligand from its target. Low readings indicate higher affinity, high ones lower affinity.

Assay [1] addresses 5-hydroxytryptamine receptor 2A (Homo sapiens, UniProt P28223). The assay is described as follows: Competition Binding in Human 5-HT2A Receptor. As to the method:
Serotonin 5-HT2A receptor competition binding experiments were carried out in a polypropilene 96-well plate. In each well was incubated 80 μg of membranes from CHO-5-HT2A cell line prepared in the laboratory (protein concentration=4337 μg/ml), 1 nM [3H]-Ketanserin (47.3 Ci/mmol, 1 mCi/ml, Perkin Elmer NET791250UC) and compounds studied and standard. Non-specific binding was determined in the presence of Methysergide 1 μM (Sigma M137). The reaction mixture (Vt: 250 μl/well) was incubated at 37° C. for 30 min, 200 μL was transfered to GF/B 96-well plate (Millipore, Madrid, Spain) pretreated with 0.5% of PEI and treated with binding buffer (Tris-HCl 50 mM, pH=7.4), after was filtered and washed six times with 250 μl wash buffer (Tris-HCl 50 mM, pH=6.6), before measuring in a microplate beta scintillation counter (Microbeta Trilux, PerkinElmer, Madrid, Spain).

The target of assay [2] is 5-hydroxytryptamine receptor 1B (Homo sapiens, UniProt P28222). The assay is described as follows: Binding at Human Serotonin Receptors Competition Binding in Human 5-HT1B Receptor Assay. As to the method: Serotonin 5-HT1B receptor competition binding experiments were carried out in a polypropylene 96-well plate. […] The reaction mixture (Vt: 250 μl/well) was incubated at 25° C. for 90 min, 200 μL was transfered to GF/C 96-well plate (Millipore, Madrid, Spain) pretreated with 0.5% of PEI and treated with binding buffer (Tris-HCl 50 mM, EDTA 1 mM, MgCl2 10 mM, pH=7.4), after was filtered and washed four times with 250 μl wash buffer (Tris-HCl 50 mM, pH=7.4), before measuring in a microplate beta scintillation counter (Microbeta Trilux, PerkinElmer, Madrid, Spain).
5-hydroxytryptamine receptor 1B, sequence (P28222 whole entry): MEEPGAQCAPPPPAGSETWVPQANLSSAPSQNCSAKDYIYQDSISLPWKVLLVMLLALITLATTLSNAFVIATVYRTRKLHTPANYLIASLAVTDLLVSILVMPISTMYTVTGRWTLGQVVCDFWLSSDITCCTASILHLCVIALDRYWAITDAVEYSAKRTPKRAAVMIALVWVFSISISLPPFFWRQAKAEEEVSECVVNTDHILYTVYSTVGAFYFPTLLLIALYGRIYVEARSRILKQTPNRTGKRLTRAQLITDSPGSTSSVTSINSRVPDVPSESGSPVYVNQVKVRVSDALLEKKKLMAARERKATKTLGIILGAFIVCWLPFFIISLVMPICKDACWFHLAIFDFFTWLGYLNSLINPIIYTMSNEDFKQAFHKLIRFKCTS

The structures appear in SMILES notation.

5-hydroxytryptamine receptor 2A, sequence (P28223 whole entry): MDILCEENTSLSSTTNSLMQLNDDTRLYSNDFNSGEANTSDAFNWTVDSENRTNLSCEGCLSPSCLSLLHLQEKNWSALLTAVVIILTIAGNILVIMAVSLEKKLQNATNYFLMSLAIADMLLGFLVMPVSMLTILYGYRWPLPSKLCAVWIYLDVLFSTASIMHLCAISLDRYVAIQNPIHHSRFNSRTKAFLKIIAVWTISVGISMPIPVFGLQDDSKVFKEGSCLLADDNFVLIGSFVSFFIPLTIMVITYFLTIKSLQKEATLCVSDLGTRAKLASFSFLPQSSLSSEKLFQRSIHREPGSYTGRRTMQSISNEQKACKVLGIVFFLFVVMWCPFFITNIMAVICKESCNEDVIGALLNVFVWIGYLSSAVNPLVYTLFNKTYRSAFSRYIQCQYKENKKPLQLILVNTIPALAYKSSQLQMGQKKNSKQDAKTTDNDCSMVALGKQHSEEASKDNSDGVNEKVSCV

In the case of `Cc1nc(-c2ccc(-c3ccc(C(=O)Nc4cc(OCCN(C)C)c(Br)cn4)cn3)c(C3CC3)c2)no1` [US20240166639, Example 39], the values for the Ki in assay [1] and in assay [2] were 2500 nM and 0.4 nM, respectively.

Values taken from BindingDB's records for patent US20240166639 (Leukos Biotech, 2024).
